# Experimental data taken from patent US10976320B2, “Methods for identifying and treating cancer patients” (The Board of Trustees of the Leland Stanford Junior …, priority 2013, dated 2021).
# How the values were obtained:
# [1] = tested on: ARID1A wild-type cells (293T and ES2) and ARID1A mutant cells (Hec1b, SKOV3, T47D, and TOV21G); assay: Synthetic lethal screen, Cell Titer Blue viability after treatment with topoisomerase inhibitors; type: cell-based; conditions: ARID1A mutant vs wild-type cell lines; IC50 (μM) only plotted in FIG. 11A-C; 72 h after compound addition
# Procedure: FIG. 11A-FIG. 11C. Synthetic lethal screen comparing the sensitivity of ARID1A wild-type cells (293T and ES2) and ARID1A mutant cells (Hec1b, SKOV3, T47D, and TOV21G) to treatment with topoisomerase inhibitors. Values of IC50 (μM) are plotted on the y-axis, with error bars as shown. FIG. 11A: treatment with etoposide; FIG. 11B: treatment with doxorubicin; FIG. 11C: treatment with ICRF-193.
# In each case, 1500-2000 cells were plated in 100 ul per 384 well clear bottom black plate (E&K Scientific EK-30091). After 24 hours, doses of the listed compound diluted in DMSO were pinned into the plates. After 48 hours, 10 ul of Cell Titer Blue (Promega) was added, and the cells were placed back in the incubator. Fluorescence was read after another 24 hours. IC50 values (μM) are reported on the y-axis.
# [2] = tested on: NCI60 non small cell lung cancer lines expressing BRG1/BRM or deficient in both; conditions: BRG1/BRM-deficient vs expressing NCI60 lung lines; IC50 (μM) only plotted in FIG. 12A-B; CellMiner data; cited from earlier work
# [3] = tested on: Brg1fl/fl(ERD) ESCs; assay: Cell cycle analysis (BrdU/7-AAD FACS) with or without caffeine; type: cell-based, mouse; conditions: caffeine added to media 2 h before BrdU incubation; FIG. 1D
# Description: FIG. 1A-FIG. 1F. BRG1 associates with Topo2A and regulates its function. FIG. 1A, Anaphase bridges in Brg1^fl/fl and Brg1^fl/fl(ERD) ESCs. Data represent number of slides from four independent experiments±s.e.m. FIG. 1B, Co-immunoprecipitation of BRG1 and Topo2A from nuclear lysates. FIG. 1C, DNA content in Brg1^fl/fl and Brg1^fl/fl(ERD) ESCs after release from double thymidine block. FIG. 1D, Cell cycle analysis of Brg1^fl/fl and Brg1^fl/fl(ERD) ESCs with or without caffeine, an ATM/ATR inhibitor. FIG. 1E, Data represent five independent histone H3 serine 10 phosphorylation (H3(S10)P cell cycle analyses±s.e.m. FIG. 1F, Data represent the mean of the average chromosome length per cell from 40 cells from metaphase spreads of Brg1^fl/fl and Brg1^fl/fl(ERD) MEFs from two independent experiments.
# The cell cycle analysis was performed using BD Biosciences BrdU-FITC FACS kit. ESCs were incubated with BrdU for 1 h and MEFs were incubated with BrdU for 4 h. Brg1^fl/fl and Brg1^fl/fl(ERD) ESCs were analysed 72 h after tamoxifen treatment. Caffeine was added to media 2 h before BrdU incubation. To determine the percent of cells in G2/M, DNA was stained with 7-AAD and analysed by FACS.
compound,measurement,setting,value
ICRF-193,sensitivity of cell lines carrying mutations in BAF subunits to the topoisomerase inhibitor,[1],no difference in the sensitivity
COc1cc([C@@H]2c3cc4c(cc3[C@@H](O[C@@H]3O[C@@H]5CO[C@@H](C)O[C@H]5[C@H](O)[C@H]3O)[C@H]3COC(=O)[C@H]23)OCO4)cc(OC)c1O [etoposide],sensitivity of cell lines carrying mutations in BAF subunits to the topoisomerase inhibitor,[1],decreased sensitivity
same,sensitivity of cell lines carrying mutations in BAF subunits to the topoisomerase inhibitor,[2],decreased sensitivity
COc1cccc2c1C(=O)c1c(O)c3c(c(O)c1C2=O)C[C@@](O)(C(=O)CO)C[C@@H]3O[C@H]1C[C@H](N)[C@H](O)[C@H](C)O1 [doxorubicin],sensitivity of cell lines carrying mutations in BAF subunits to the topoisomerase inhibitor,[1],decreased sensitivity
same,sensitivity of cell lines carrying mutations in BAF subunits to the topoisomerase inhibitor,[2],decreased sensitivity
Cn1c(=O)c2c(ncn2C)n(C)c1=O [Caffeine],effect on G2/M arrest,[3],overrides the G2/M arrest
